Laboratory results taken from ChEMBL document CHEMBL1201862, “PubChem BioAssay data set” (2004).
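A five-concentration, 48-hour dose response in 96-well plates underlies each endpoint, interpolated linearly between surrounding concentrations. GI50 marks 50% less growth.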 The source made the active and inactive calls. Cut-off read from the data, not from the text of the source: active = GI50 up to about 1.1 µM and inactive = higher.

What was measured:
Experiment in all cases: NCI-60 cell line screen, 48 h
A549 = system: A549
CAKI-1 = system: CAKI-1
TK-10 = system: TK-10
SK-OV-3 = system: SK-OV-3
NCI-H23 = system: NCI-H23
HOP-92 = system: HOP-92
HCT-15 = system: HCT-15
SW-620 = system: SW-620
UO-31 = system: UO-31
COLO 205 = system: COLO 205
IGROV-1 = system: IGROV-1
RPMI-8226 = system: RPMI-8226
UACC-62 = system: UACC-62
HCT-116 = system: HCT-116
K562 = system: K562
ACHN = system: ACHN
SK-MEL-2 = system: SK-MEL-2
LOX IMVI = system: LOX IMVI
MDA-MB-435 = system: MDA-MB-435
OVCAR-3 = system: OVCAR-3
U-251 = system: U-251
KM12 = system: KM12
OVCAR-8 = system: OVCAR-8
HCC 2998 = system: HCC 2998
SF-295 = system: SF-295
SK-MEL-5 = system: SK-MEL-5
PC-3 = system: PC-3
HOP-62 = system: HOP-62
SN12C = system: SN12C
EKVX = system: EKVX
DU-145 = system: DU-145
MOLT-4 = system: MOLT-4
M14 = system: M14
HT-29 = system: HT-29
OVCAR-5 = system: OVCAR-5
CCRF-CEM = system: CCRF-CEM
SK-MEL-28 = system: SK-MEL-28
MCF7 = system: MCF7
MDA-N = system: MDA-N
786-0 = system: 786-0
NCI/ADR-RES = system: NCI/ADR-RES
MDA-MB-231 = system: MDA-MB-231
UACC-257 = system: UACC-257
HL-60 = system: HL-60
NCI-H226 = system: NCI-H226
SNB-19 = system: SNB-19
NCI-H522 = system: NCI-H522
SF-539 = system: SF-539
Hs-578T = system: Hs-578T
SR = system: SR
NCI-H460 = system: NCI-H460
A498 = system: A498
T47D = system: T47D
SF-268 = system: SF-268
RXF 393 = system: RXF 393
OVCAR-4 = system: OVCAR-4
Malme-3M = system: Malme-3M
SNB-75 = system: SNB-75

SMILES: CC(C)(/N=N/C(C)(C)C1=NCCN1)C1=NCCN1
- GI50 (A549): > 100 µM (inactive)
- GI50 (CAKI-1): > 100 µM (inactive)
- GI50 (TK-10): > 100 µM (inactive)
- GI50 (SK-OV-3): > 100 µM (inactive)
- GI50 (NCI-H23): > 100 µM (inactive)
- GI50 (HOP-92): > 100 µM (inactive)

SMILES: Cc1cc(N)c2ccccc2[n+]1CCCCCCCCCCNc1cc(C)[n+](CCCCCCCCCC[n+]2c(C)cc(N)c3ccccc32)c2ccccc12
- GI50 (HCT-15): 1.75 µM
- GI50 (SW-620): 2.23 µM (inactive)
- GI50 (UO-31): 1.86 µM (inactive)
- GI50 (COLO 205): 0.375 µM (active)
- GI50 (A549): 0.692 µM (active)
- GI50 (IGROV-1): 1.35 µM (inactive)
- GI50 (CAKI-1): 34.6 µM (inactive)
- GI50 (RPMI-8226): 0.352 µM (active)
- GI50 (UACC-62): 0.608 µM (active)
- GI50 (HCT-116): 1.35 µM (inactive)
- GI50 (K562): 0.4 µM (active)
- GI50 (ACHN): 0.964 µM (active)
- GI50 (SK-MEL-2): 1.41 µM (inactive)
- GI50 (LOX IMVI): 1.79 µM (inactive)
- GI50 (MDA-MB-435): 0.427 µM (active)
- GI50 (OVCAR-3): 1.56 µM (inactive)
- GI50 (U-251): 0.406 µM (active)
- GI50 (KM12): 0.618 µM (active)
- GI50 (OVCAR-8): 1.61 µM (inactive)
- GI50 (HCC 2998): 0.759 µM (active)
- GI50 (SF-295): 1.32 µM (inactive)
- GI50 (SK-MEL-5): 0.439 µM (active)
- GI50 (PC-3): 1.02 µM (active)
- GI50 (HOP-62): 0.929 µM (active)
- GI50 (NCI-H23): 0.516 µM (active)
- GI50 (SN12C): 0.293 µM (active)
- GI50 (EKVX): 14.6 µM (inactive)
- GI50 (DU-145): 1.75 µM (inactive)
- GI50 (MOLT-4): 1.01 µM (active)
- GI50 (M14): 0.746 µM (active)
- GI50 (HT-29): 11.6 µM (inactive)
- GI50 (OVCAR-5): 1.49 µM (inactive)
- GI50 (CCRF-CEM): 0.52 µM (active)
- GI50 (SK-MEL-28): 0.528 µM (active)
- GI50 (MCF7): 0.682 µM (active)
- GI50 (MDA-N): 0.333 µM (active)
- GI50 (786-0): 0.547 µM (active)

SMILES: C[C@H]1C[C@H]2[C@@H]3C(C)(C)O[C@]4(O)C(=O)[C@]5(O)[C@@H](C)CC[C@H]1[C@]25C(=O)[C@]34C
- GI50 (HCT-15): 33.9 µM
- GI50 (SW-620): 79.6 µM (inactive)
- GI50 (NCI/ADR-RES): 39.3 µM (inactive)
- GI50 (UO-31): 51.6 µM (inactive)
- GI50 (COLO 205): 16.7 µM (inactive)
- GI50 (MDA-MB-231): > 100 µM (inactive)
- GI50 (A549): 41.6 µM (inactive)
- GI50 (UACC-257): 48.5 µM (inactive)
- GI50 (IGROV-1): 64 µM (inactive)
- GI50 (CAKI-1): 39.4 µM (inactive)
- GI50 (RPMI-8226): 18.1 µM (inactive)
- GI50 (UACC-62): 43.4 µM (inactive)
- GI50 (HCT-116): 30.7 µM (inactive)
- GI50 (SK-OV-3): 82.4 µM (inactive)
- GI50 (K562): 25.5 µM (inactive)
- GI50 (HL-60): 29.4 µM (inactive)
- GI50 (NCI-H226): 31.3 µM (inactive)
- GI50 (ACHN): 27.3 µM (inactive)
- GI50 (SNB-19): > 100 µM (inactive)
- GI50 (SK-MEL-2): 31.3 µM (inactive)
- GI50 (LOX IMVI): 36.1 µM (inactive)
- GI50 (MDA-MB-435): 32.8 µM (inactive)
- GI50 (OVCAR-3): 27.4 µM (inactive)
- GI50 (U-251): 60.3 µM (inactive)
- GI50 (KM12): 35.6 µM (inactive)
- GI50 (OVCAR-8): 63.7 µM (inactive)
- GI50 (SF-295): 30.1 µM (inactive)
- GI50 (NCI-H522): 18 µM (inactive)
- GI50 (SK-MEL-5): 28.4 µM (inactive)
- GI50 (SF-539): > 100 µM (inactive)
- GI50 (PC-3): 44.1 µM (inactive)
- GI50 (HOP-62): 47.1 µM (inactive)
- GI50 (Hs-578T): 37.5 µM (inactive)
- GI50 (NCI-H23): 30.3 µM (inactive)
- GI50 (SN12C): 80.2 µM (inactive)
- GI50 (DU-145): 48.2 µM (inactive)
- GI50 (MOLT-4): 37.1 µM (inactive)
- GI50 (M14): 71 µM (inactive)
- GI50 (HT-29): 26 µM (inactive)
- GI50 (SR): 40.1 µM (inactive)
- GI50 (OVCAR-5): 65.2 µM (inactive)
- GI50 (NCI-H460): 30.2 µM (inactive)
- GI50 (CCRF-CEM): 36.6 µM (inactive)
- GI50 (A498): 35 µM (inactive)
- GI50 (MCF7): 41.3 µM (inactive)
- GI50 (T47D): 25.2 µM (inactive)
- GI50 (HOP-92): 8.61 µM (inactive)
- GI50 (SF-268): 45.7 µM (inactive)
- GI50 (MDA-N): 37.7 µM (inactive)
- GI50 (786-0): 75.5 µM (inactive)

SMILES: Cn1c(=O)c2[nH]c(Nc3cccc(Cl)c3)nc2n(C)c1=O
- GI50 (HCT-15): 4.99 µM
- GI50 (SW-620): 5.78 µM (inactive)
- GI50 (COLO 205): 3.6 µM (inactive)
- GI50 (MDA-MB-231): 7.48 µM (inactive)
- GI50 (A549): 5.6 µM (inactive)
- GI50 (UACC-257): 4.18 µM (inactive)
- GI50 (IGROV-1): 3.8 µM (inactive)
- GI50 (CAKI-1): 4.75 µM (inactive)
- GI50 (RPMI-8226): 2.49 µM (inactive)
- GI50 (UACC-62): 3.17 µM (inactive)
- GI50 (TK-10): 8.91 µM (inactive)
- GI50 (SK-OV-3): 6.17 µM (inactive)
- GI50 (K562): 5.4 µM (inactive)
- GI50 (RXF 393): 2.05 µM (inactive)
- GI50 (HL-60): 3.31 µM (inactive)
- GI50 (LOX IMVI): 7.13 µM (inactive)
- GI50 (MDA-MB-435): 3.82 µM (inactive)
- GI50 (KM12): 4.78 µM (inactive)
- GI50 (OVCAR-8): 6.17 µM (inactive)
- GI50 (HCC 2998): 4.27 µM (inactive)
- GI50 (SF-295): 4.84 µM (inactive)
- GI50 (SK-MEL-5): 4.28 µM (inactive)
- GI50 (PC-3): 4.11 µM (inactive)
- GI50 (HOP-62): 4.67 µM (inactive)
- GI50 (NCI-H23): 2.63 µM (inactive)
- GI50 (SN12C): 5.77 µM (inactive)
- GI50 (EKVX): 4.16 µM (inactive)
- GI50 (DU-145): 4.76 µM (inactive)
- GI50 (MOLT-4): 3.13 µM (inactive)
- GI50 (M14): 5.6 µM (inactive)
- GI50 (HT-29): 3.99 µM (inactive)
- GI50 (OVCAR-4): 4.05 µM (inactive)
- GI50 (CCRF-CEM): 3.96 µM (inactive)
- GI50 (Malme-3M): 3.65 µM (inactive)
- GI50 (SK-MEL-28): 5.42 µM (inactive)
- GI50 (MCF7): 3.79 µM (inactive)
- GI50 (T47D): 2.86 µM (inactive)
- GI50 (HOP-92): 2.78 µM (inactive)
- GI50 (SF-268): 6.98 µM (inactive)
- GI50 (MDA-N): 4.21 µM (inactive)
- GI50 (SNB-75): 4.86 µM (inactive)
- GI50 (786-0): 4.4 µM (inactive)
